In patent US11261189B2, “Substituted 2,4 diamino-quinoline as new medicament for fibrosis, autophagy and cathepsins B (CTSB), L (CTSL) and D (CTSD) related diseases” (Genoscience Pharma, priority 2018, dated 2022):
Entries after “also recorded” stand apart in the source; their conditions may differ. Where a name gives a salt, the structure may show the parent alone.

What was measured:
[1] = test system: autophagy flux (LC3-II) in Huh7 cell line; test: Autophagy flux, LC3-II immunoblot with/without Bafilomycin, Huh7 cell line; assay type: cell-based; details: 4 hours and 24 hours of treatment
Protocol: Since compound 2-3 induced an inhibition of the proteolytic activity of cathepsins B, D and/or L (see example 1) supporting an inhibition of some lysosomal functions which can affect the cellular autophagy flux, the capacity of compound 2-3 to modulate the cellular autophagy processes and functions was evaluated in two Hepatocellular carcinoma (HCC) cell lines: Huh7 and HepG2. For this purpose, the accumulation of LC3-II (Light Chain 3 phosphatidylethanolamine conjugate) in presence or absence of compound 2-3 was analyzed using immunoblot analysis of LC3-II.
The HepG2 cell line was maintained in DMEM low glucose (Cat #21885025, ThermoFischer) containing 1% penicillin-streptomycin (Cat #P06-07100, Dutscher) and 10% FBS (Cat #SV30160.03C, Dutscher). The Huh7 cell line was maintained in DMEM high glucose (Cat #L0103-500, Dutscher) containing 1% penicillin-streptomycin (Cat #P06-07100, Dutscher) and 10% SVF (Cat #SV30160.03C, Dutscher). Cells lines were cultured at 37° C. with 5% CO2.
The day before the experiment, 6-well plates with 250,000 cells for HepG2 and 310,000 cells for Huh7 in 1.8 mL of medium per well were prepared. […]
After 4 hours and 24 hours of cells treatment, the medium was removed from each well. […] Total protein concentration was assessed using the BCA reagent (Cat #23227, ThermoFischer) and cellular lysates were stored at −80° C. until western-blot analysis. […]

[2] = test system: diethyl nitrosamine (DEN) cirrhotic rat model of liver fibrosis; test: DEN induced cirrhosis in rats, study 1: Sirius red quantification of liver fibrosis; assay type: in vivo; details: 6 weeks after 14 weeks DEN
Text: This animal model allows developing an extensive liver fibrosis, leading to a compensated liver cirrhosis with a multifocal hepatocarcinoma (HCC) after 14 weeks of induction (Schiffer, E. et al. Hepatology 2005 (41), 307-314). The DEN cirrhotic rat animal model was used here as a specific animal model of liver fibrosis.
Forty two Fisher 344 male rat (obtained from Charles River Laboratories France, including spare animals), weighting approximately 280 g at the start of the study, were randomized in 5 groups of 8 (groups 1, 2, 3 and 5) or 6 (group 4) animals and housed with 3 animals per cage, given free access to food and water and allowed to acclimate for at least 5 days prior to test initiation.
The DEN cirrhotic rat model was obtained after 14 weekly intraperitoneal injections of DEN (intra-peritoneal injections (i.p.) of DEN at 50 mg/kg/week). The animals were then treated according to Table 9 during 6 weeks. In this in vivo experiment, the anti-fibrotic activity of compound 2-3 was evaluated in liver fibrosis animal model, alone or in combination with Sorafenib (a multikinase inhibitor of Raf-1, B-Raf, VEGFR-2, VEGFR3, PDGFRβ, Flt3 and c-Kit). After 6 weeks of treatment, all animals were sacrificed using CO2 and rat livers were collected for analysis. The quantification of the liver fibrotic tissue was evaluated by Sirius red staining of rat liver sections.
Group 1 contained 8 animals which were daily dosed (q.d.) by oral gavage (per os, p.o.) with the vehicle during 6 weeks.
Group 2 contained 8 animals which were daily dosed (q.d.) by oral gavage (per os, p.o.) with Sorafenib at 10 mg/kg/day during 6 weeks.
Group 3 contained 8 animals which were daily dosed (q.d.) by oral gavage (per os, p.o.) with compound 2-3 at 15 mg/kg/day during 6 weeks.
Group 4 contained 6 animals which were daily dosed (q.d.) by oral gavage (per os, p.o.) with compound 2-3 at 15 mg/kg/day in combination with Sorafenib at 10 mg/kg/day during 6 weeks.
Group 5 contained 8 animals which were daily dosed (q.d.) by oral gavage (per os, p.o.) with compound 2-3 at 30 mg/kg/day during 6 weeks. […]

`CC(C)(C)NC1CCN(c2cc(NCc3ccc(Cl)cc3)nc3ccccc23)CC1` [2-3, 2-(4-chlorobenzylamino)-4-(4-tert-butylaminopiperidin-1-yl)-quinoline Hydrochloride Salt] was tested, and the “accumulation of the LC3-II form” value [1] was “significantly induced, in a dose-dependent manner, an accumulation of the LC3-II form”, the “autophagy flux (LC3-II Baf+/Baf− ratio)” value ([1]; Hydrochloride Salt) was “inhibition; also recorded: inhibitor of the autophagy flux” and the “reduction of the level of collagen fibers deposition (Sirius red) compared to the control group” value ([2]; group 3: 15 mg/kg/day p.o. q.d., p<0.05) was 41.0%. The “reduction of the level of collagen fibers deposition (Sirius red) compared to the control group” value ([2]; group 5: 30 mg/kg/day p.o. q.d., p=0.01) was 45.3%.
